Active and inactive are the calls of the source. The rule behind the calls is not given here.
What was measured:
[1] = Toxicity in female BALB/c mouse implanted with mouse 4T1 cells assessed as spleen lesion at 10 mg/kg, iv; type: organism-based; conditions: in vivo
MDA-MB-468 [2] = test: Induction of apoptosis in human MDA-MB-468 cells assessed as increase in cleaved caspase 3 level at 25 nM measured after 48 hrs by Western blot analysis; type: functional, cell-based
4T1 [3] = test: Antitumor activity against mouse 4T1 cells implanted in female BALB/c mouse at 10 mg/kg, iv administered upto 5 days; type: functional, organism-based; conditions: time <= 5.0 day
[4] = Toxicity in female BALB/c mouse implanted with mouse 4T1 cells assessed as liver lesion at 10 mg/kg, iv; type: organism-based; conditions: in vivo
4T1 [5] = test: Antitumor activity against mouse 4T1 cells implanted in female BALB/c mouse model assessed as increase in TNF-alpha expression in tumor at 10 mg/kg, iv administered upto 5 days; type: functional, organism-based; conditions: time <= 5.0 day
4T1 [6] = test: Antitumor activity against mouse 4T1 cells implanted in female BALB/c mouse assessed as increase in phospho eIF2alpha level in tumor at 10 mg/kg, iv administered upto 5 days by Western blot analysis; type: functional, organism-based; conditions: time <= 5.0 day
[7] = Toxicity in female BALB/c mouse implanted with mouse 4T1 cells assessed as liver inflammation at 10 mg/kg, iv; type: organism-based; conditions: in vivo
4T1 [8] = test: Antitumor activity against mouse 4T1 cells implanted in female BALB/c mouse assessed as reduction in tumor weight at 10 mg/kg, iv administered upto 5 days; type: functional, organism-based; conditions: time <= 5.0 day
A549 = test: Antiproliferative activity against human A549 cells assessed as cell viability at 10 nM incubated for 48 hrs by MTT assay; type: functional, cell-based
4T1 [9] = test: Antitumor activity against mouse 4T1 cells implanted in female BALB/c mouse assessed as induction of intracellular ROS accumulation in tumor at 10 mg/kg, iv administered upto 5 days; type: functional, organism-based; conditions: time <= 5.0 day
4T1 [10] = test: Antitumor activity against mouse 4T1 cells implanted in female BALB/c mouse model assessed as increase in cleaved caspase-3 level in tumor at 10 mg/kg, iv administered upto 5 days; type: functional, organism-based; conditions: time <= 5.0 day
4T1 [11] = test: Antitumor activity against mouse 4T1 cells implanted in female BALB/c mouse assessed as increase in 4-HNE level in tumor at 10 mg/kg, iv administered upto 5 days by Western blot analysis; type: functional, organism-based; conditions: time <= 5.0 day
MDA-MB-468 [12] = test: Induction of ROS production in human MDA-MB-468 cells assessed as increase in ROS level at 25 nM incubated for 6 hrs by DCFH-DA staining based confocal microscopic analysis; type: functional, cell-based
Cisplatin-resistant 4T1 = test: Antitumor activity against mouse Cisplatin-resistant 4T1 cells implanted in female BALB/c mouse assessed as reduction in tumor volume at 10 mg/kg, ip; type: functional, organism-based
[13] = Toxicity in female BALB/c mouse implanted with mouse 4T1 cells assessed as liver abnormality at 10 mg/kg, iv; type: organism-based; conditions: in vivo
[14] = Toxicity in female BALB/c mouse implanted with mouse 4T1 cells assessed as spleen inflammation at 10 mg/kg, iv; type: organism-based; conditions: in vivo
4T1 [15] = test: Antitumor activity against mouse 4T1 cells implanted in female BALB/c mouse assessed as increase in MDA level in tumor at 10 mg/kg, iv administered upto 5 days by Western blot analysis; type: functional, organism-based; conditions: time <= 5.0 day
[16] = Toxicity in female BALB/c mouse implanted with mouse 4T1 cells assessed as kidney abnormality at 10 mg/kg, iv; type: organism-based; conditions: in vivo
4T1 [17] = test: Antitumor activity against mouse 4T1 cells implanted in female BALB/c mouse assessed as increase in ATF4 level in tumor at 10 mg/kg, iv administered upto 5 days by Western blot analysis; type: functional, organism-based; conditions: time <= 5.0 day
4T1 [18] = test: Antitumor immunity against mouse 4T1 cells implanted in female BALB/c mouse model assessed as increase in ratio of CD8+ T cells to CD4+ T cells at 10 mg/kg, iv administered upto 5 days by flow cytometry analysis; type: functional, organism-based; conditions: time <= 5.0 day
[19] = Toxicity in female BALB/c mouse implanted with mouse 4T1 cells assessed as lung damage at 10 mg/kg, iv; type: organism-based; conditions: in vivo
[20] = Toxicity in female BALB/c mouse implanted with mouse 4T1 cells assessed as heart damage at 10 mg/kg, iv; type: organism-based; conditions: in vivo
[21] = Toxicity in female BALB/c mouse implanted with mouse 4T1 cells assessed as heart inflammation at 10 mg/kg, iv; type: organism-based; conditions: in vivo
MDA-MB-468 [22] = test: Induction of endoplasmic reticulum (ER) stress-mediated apoptosis in human MDA-MB-468 cells assessed as increase in ATF4 expression at 25 nM measured at 2 hrs by Western blot analysis; type: functional, cell-based
MDA-MB-468 [23] = test: Antiproliferative activity against human MDA-MB-468 cells assessed as cell viability at 10 nM incubated for 48 hrs by MTT assay; type: functional, cell-based
MDA-MB-468 [24] = test: Induction of apoptosis in human MDA-MB-468 cells assessed as increase in cleaved PARP level at 25 nM measured after 48 hrs by Western blot analysis; type: functional, cell-based
HEK293 = test: Antiproliferative activity against human HEK293 cells assessed as cell viability at 10 nM incubated for 48 hrs by MTT assay; type: toxicity, cell-based; conditions: hek293, 48 h, 0.01 µM
4T1 [25] = test: Antitumor activity against mouse 4T1 cells implanted in female BALB/c mouse model assessed as increase in IFN-gamma expression in tumor at 10 mg/kg, iv administered upto 5 days; type: functional, organism-based; conditions: time <= 5.0 day
4T1 [26] = test: Antitumor activity against mouse 4T1 cells implanted in female BALB/c mouse assessed as reduction in tumor volume at 10 mg/kg, iv administered upto 5 days; type: functional, organism-based; conditions: time <= 5.0 day
[27] = Toxicity in female BALB/c mouse implanted with mouse 4T1 cells assessed as liver damage at 10 mg/kg, iv; type: organism-based; conditions: in vivo

CCCCCCC[C@@H]1CC(=O)N[C@H](Cc2ccccc2)C(=O)N[C@H]2CSSC[C@H](NC2=O)C(=O)O1
Activity [1]: Non-toxic
Activity (MDA-MB-468 [2]): Active
Activity (4T1 [3]): Active
Activity [4]: Non-toxic
Activity (4T1 [5]): Active
Activity (4T1 [6]): Active
Activity [7]: Non-toxic
Activity (4T1 [8]): Active
Activity (A549): Active
Activity (4T1 [9]): Active
Activity (4T1 [10]): Active
Activity (4T1 [11]): Active
Activity (MDA-MB-468 [12]): Active
Activity (Cisplatin-resistant 4T1): Active
Activity [13]: Non-toxic
Activity [14]: Non-toxic
Activity (4T1 [15]): Active
Activity [16]: Non-toxic
Activity (4T1 [17]): Active
Activity (4T1 [18]): Active
Activity [19]: Non-toxic
Activity [20]: Non-toxic
Activity [21]: Non-toxic
Activity (MDA-MB-468 [22]): Active
Activity (MDA-MB-468 [23]): Active
Activity (MDA-MB-468 [24]): Active
Activity (HEK293): Non-toxic
Activity (4T1 [25]): Active
Activity (4T1 [26]): Active
Activity [27]: Non-toxic
